Laboratory results reported in article PMC7875911 (Frontiers in Pharmacology, 2021).
Values joined by “and” are separate entries in the source; they are usually repeats but may differ in a detail not shown here. Equal entries are not always repeated. Where two headings read alike, the source gives them in different places.

How the values were obtained:
[1] = system: c-fibre evoked excitatory post-synaptic currents; settings: cited from earlier work
[2] = system: TTXs-I Na in small-diameter IB4 ^± DRG neurons
Protocol: (§1) Spinal level L3–L5 DRG were removed and placed in ice-cold HEPES-buffered saline (HBS) composed of (in mM): 154 NaCl, 2.5 KCl, 1.8 CaCl2, 1.5 MgCl2, 10 HEPES, and 10 glucose (pH 7.4, 330 ± 5 mOsm). Iridectomy scissors were utilized to cut up ganglia before incubation at 37°C for 15 min in oxygenated HBS containing 5 mg ml^−1 collagenase type 2 (Worthington Biochemical Corp, Lakewood, NJ, United States) followed by 25 min in oxygenated HBS containing 1 mg ml^−1 papain (Worthington Biochemical Corp). […] After enzyme treatment, ganglia were placed in 3 ml of HBS following two room temperature HBS washes. Ganglia were then triturated through fire-polished Pasteur pipettes with decreasing bores to extract cells. Finally, the cells mixed in HBS were plated onto surface modified culture dishes (Corning Primaria™ easy grip). […] DRG cells were pre-treated with 1 μg ml^−1 Alexa Fluor 488-conjugated Bandeiraea simplicifolia IB4 (Invitrogen) for 5 min at room temperature and washed with HBS for 5 min before fluorescence was examined on the inverted microscope (Olympus, IX50) used for patch clamp recordings.
(§2) Cell size was determined from an eyepiece graticule. Whole-cell electrophysiology was conducted at room temperature (22–24°C) in culture dishes perfused with room temperature HBS. The intracellular pipette solution contained (mM): 120 CsCl, 10 HEPES, 10 EGTA, 2 CaCl2, 5 MgATP, 5 Na2GTP, 5 NaCl; pH 7.3 (CsOH); 285 ± 5 mos mol l^−1.
(§3) An EPC-9 patch-clamp amplifier and corresponding PULSE software from HEKA Electronik (Lambrecht/Pfalz, Germany) were used to make recordings. Currents were sampled at 50 kHz and recorded on a hard disk. Borosilicate glass from AM Systems, Everett, WA, United States were used for patch pipettes. The input resistance of the pipettes ranged from 2 to 4 MΩ. […] A built-in procedure of the HEKA amplifier compensated for the capacitive transient currents. A −P/6 protocol was utilized to subtract leak current online. I Ca was generated with the recording protocol which included a depolarization from a holding potential of −80 mV to 0 mV for 10 ms every 30 s. I Na was generated through a recording protocol which included a step depolarization from a holding potential of −80 mV to 0 mV for 10 ms at a frequency of 0.1 Hz. Cells were perfused with the test compound via a pressure driven perfusion system (AutoMate Scientific, United States).
(§4) All data analysis and graphs were generated in OriginPro (Origin Lab Corporation, United States). […] Activation and SSI curves were fit by the modified Boltzmann equation: I or G=1/(1+exp(Vm−V0.5/ka)) Where I is the current or G is the conductance, Vm is the pre-pulse potential, V 0.5 is the half-maximal activation potential and ka is the slope factor.
(§5) Statistical significance (p < 0.05) was determined using unpaired Student’s t-test or 1-way ANOVA followed by a Tukey multiple comparison. All data is presented as mean ± SEM (n), where n is individual cells.

[3] = system: TTXs-I Na in small-diameter IB4 ^− DRG neurons
Protocol: as §1, §2, §3, §4, §5

[4] = system: HVA I Ca in small-diameter IB4 ^− DRG neurons; assay: cells
Protocol: as §1, §2, §3, §4, §5

hCav2.1 = assay: Whole-cell patch clamp, recombinant hCav2.1 in HEK293; type: cell-based, human; settings: 10 µM
Protocol: Human embryonic kidney (HEK293T) cells containing the SV40 Large T-antigen were cultured at 37°C, 5% CO2 in Dulbecco’s Modified Eagle’s Medium (DMEM, Invitrogen Life Technologies, Australia), supplemented with 10% fetal bovine serum (FBS, Bovigen, Australia), 1% GlutaMAX and penicillin-streptomycin (Invitrogen, Australia). […]
Depolarization-activated Ca^2+ currents (ICa) in transfected HEK293 cells were recorded in the whole-cell patch clamp configuration. Data were recorded using a MultiClamp 700B amplifier, digitized with a DigiData1440 and controlled using Clampex10.7 software (Molecular Devices, United States). […]
Statistical significance (p < 0.05) was determined using unpaired Student’s t-test or 1-way ANOVA followed by a Tukey multiple comparison. […]
Numerous HVA Cav channel isoforms are present in rat DRG neurons. […] We transiently co-transfected the individual Cav channel α-subunits of interest together with β3 and α2δ1 subunits in HEK293 cells and measured whole-cell I Ca currents by patch clamp. […]

CSCC[C@@H]1NC(=O)[C@H](Cc2ccc(O)cc2)NC(=O)[C@H](CCCNC(=N)N)NC(=O)[C@@H](NC(=O)[C@@H](N)CC(=O)O)CSSC[C@@H]2NC(=O)[C@@H]3CSSC[C@@H](C(=O)N[C@@H](C)C(=O)N[C@@H](Cc4c[nH]c5ccccc45)C(=O)N[C@@H](CC(=O)O)C(=O)N[C@@H](Cc4ccccc4)C(=O)N[C@H](C(=O)N[C@@H](Cc4ccccc4)C(=O)N[C@H](C(=O)O)[C@@H](C)O)[C@@H](C)O)NC(=O)[C@H](Cc4ccc(O)cc4)NC(=O)[C@H](CCCCN)NC(=O)[C@H](CCSC)NC(=O)[C@H](CCCCN)NC(=O)[C@H](CCCNC(=N)N)NC(=O)[C@H](CCCCN)NC(=O)[C@H](CSSC[C@H](NC(=O)[C@H](CC(=O)O)NC(=O)CNC(=O)[C@H](Cc4ccccc4)NC1=O)C(=O)N[C@@H](CCC(=O)O)C(=O)N[C@@H](CCCCN)C(=O)N[C@@H](CC(=O)O)C(=O)N[C@@H](CCC(=O)O)C(=O)N[C@@H](CC(=O)O)C(=O)N3)NC(=O)CNC(=O)[C@H](CC(C)C)NC(=O)[C@H](Cc1c[nH]cn1)NC(=O)[C@H](CCCCN)NC2=O [Pn3a, µ-Theraphotoxin-Pn3a]
effect on c-fibre evoked excitatory post-synaptic currents (in words) [1]: reduce c-fibre evoked excitatory post-synaptic currents | I Na remaining after application [2]: ~50% | reversibility on washout of TTXs-I Na inhibition [2]: fully reversible upon washout | I Na remaining after application [3]: ~50% | potency loss versus reported recombinant hNav1.7 [3]: ~250 fold | reversibility on washout of TTXs-I Na inhibition [3]: fully reversible upon washout | HVA I Ca spared [4]: half | inhibition of HVA I Ca [4]: 4.45 ± 0.78% | suppression of I Ca [4]: 13.97 ± 1.39% | inhibition of HVA I Ca ([4]; 10 µM): ~55% and 56.5 ± 1.9% | inhibition of Cav2.1-mediated current (hCav2.1): 58.0 ± 1.8%
